Assay results from ChEMBL document CHEMBL3639041, “Respiratory formulations and compounds for use therein” (2015).

Columns and labels:
[1] = target: Tyrosine-protein kinase HCK (Homo sapiens, UniProt P08631); test: (§1) Fluorescence Resonance Energy Transfer (FRET) Assay: The enzyme inhibitory activity of test compounds was determined by fluorescence resonance energy transfer (FRET) using synthetic peptides labelled with both donor and acceptor fluorophores (Z-LYTE, Invitrogen). Recombinant, phosphorylated p38 MAPK (MAPK12:Millipore) was diluted in HEPES buffer, mixed with compound at the desired final concentrations and incubated for 2 hr at RT. The FRET peptide (2 uM) and ATP (100 uM) were next added to the enzyme/compound mixture and incubated for 1 hr. Development reagent (protease) was added for 1 hr prior to detection in a fluorescence microplate reader. The site-specific protease only cleaves non-phosphorylated peptide and eliminates the FRET signal. Phosphorylation levels of each reaction were calculated using the ratio of coumarin emission (donor) over fluorescein emission (acceptor) with […].
[2] = target: T1, Mitogen-activated protein kinase 12 (Homo sapiens, UniProt P53778); test: as §1
T1 sequence (P53778 whole entry): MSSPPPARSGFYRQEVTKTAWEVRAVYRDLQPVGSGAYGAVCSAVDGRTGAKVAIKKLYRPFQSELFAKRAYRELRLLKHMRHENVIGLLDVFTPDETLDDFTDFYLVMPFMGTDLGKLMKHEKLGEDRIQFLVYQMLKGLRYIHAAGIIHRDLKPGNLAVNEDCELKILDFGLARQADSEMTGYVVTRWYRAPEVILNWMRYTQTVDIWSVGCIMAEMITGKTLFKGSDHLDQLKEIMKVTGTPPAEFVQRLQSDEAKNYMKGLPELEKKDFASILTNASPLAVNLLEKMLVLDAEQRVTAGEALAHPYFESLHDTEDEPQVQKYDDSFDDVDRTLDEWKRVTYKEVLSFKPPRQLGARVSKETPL

[3] = target: Proto-oncogene tyrosine-protein kinase Src (Homo sapiens, UniProt P12931); test: as §1

IC50 [1]	IC50 [2]	IC50 [3]	SMILES
3 nM	41 nM	–	Cc1ccc(-n2nc(C(C)(C)C)cc2NC(=O)Nc2ccc(Oc3ccnc4[nH]c(=O)cnc34)c3ccccc23)s1
4 nM	39 nM	8 nM	Cc1ccc(-n2nc(C(C)C)cc2NC(=O)Nc2ccc(Oc3ccnc4[nH]c(=O)cnc34)c3ccccc23)cc1
–	89 nM	6 nM	CC(C)(C)c1cc(NC(=O)Nc2ccc(Oc3ccnc4[nH]c(=O)cnc34)c3ccccc23)n(-c2ccc(Cl)c(Cl)c2)n1
